Values after ≈ are worked out from the molar mass of the structure shown. Read-outs that look alike come from different tables or passages of the source. Starred links: 1 amine or outer side, 2 acyl side, 3 side chain; linkers in the order of their positions; H or OH if unused. Positions of bridges follow the written chain, without caps; N, C: chain ends. Non-standard residues stand in square brackets, D forms with d. Residues, ends and D or L forms follow the SMILES beside them. Groups on a side chain read outwards from the residue. *: point of attachment. X2 = O=C(O)CCCCCCCCCCCCCCCCC(=O)N[C@@H](CCC(=O)NCOCCOCC(=O)NCOCCOCC(=O)*)C(=O)O; γGlu = O=C(O)[C@H](CCC(=O)[*:2])N[*:1]; Palmitoyl = CCCCCCCCCCCCCCCC(=O)*; AEEA = NCCOCCOCC(=O)O
Experiments:
[1] = in vivo; set-up: species or system Sprague-Dawley rats; conditions: rat, iv, 0.033 mg/kg
How it was run: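 Male Sprague-Dawley rats, non-fasted (n=3), given peptide in saline as 1-h IV or SC infusion at 0.033 mg/kg, or SC bolus at 0.3 mg/kg; jugular blood to 48 h into K2EDTA plus protease inhibitors. Plasma extracted by precipitation or WCX solid-phase extraction, quantified by UPLC-MS/MS against standards in matching rat plasma.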

[2] = Acute food intake inhibition after SC bolus injection (BioDAQ); conditions: Long Evans rats on 45% high fat diet
[3] = Solubility of amylin analog polypeptides (visual inspection, room temperature); format: physicochemical
Procedure: The analog polypeptides described herein were tested for solubility in saline 20% DMSO in water (i.e., bioassay buffer) or in aqueous (DI water) at room temperature. Samples were visually inspected for clarity of the sample, any appearance of turbidity or haziness.

[4] = biological target: human amylin 3 receptor (hAMY3R) (Homo sapiens, UniProt O60896+P30988); experiment: cAMP accumulation functional assay in HEK293-CNG cells expressing hAMY3R; format: cell-based
Procedure: (§1) In the presence of the non-specific cAMP/cGMP phosphodiesterase inhibitor 3-isobutyl-1-methylxanthine (IBMX), accumulating cAMP can be measured in vitro using common detection methods. Thus, it is possible to estimate an in vitro potency (pEC50) for peptides activating each of these receptors using fit dose-response curves for cAMP accumulation.
(§2) Cells were carried in growth media for no more than 10 passages prior to testing.
(§3) Peptides were serially diluted in the same buffer as above for each given assay condition. Two assay control solutions consisting of 50 mcM forskolin (cAMP system maximum) or assay buffer only (cAMP system minimum) were also prepared in the appropriate stimulation buffers. Five microliters of each peptide-concentration, or assay control was added to triplicate wells and incubated for thirty minutes at room temperature. During this incubation step a 4× europium labelled cAMP tracer solution and a 4× Ulight®-anti-cAMP solution (consisting of an anti-cAMP monoclonal antibody labelled with Ulight™ dye) was prepared according to the manufacturer's protocol (PerkinElmer LANCE Ultra cAMP kit). Following this incubation, 5 mcL europium labelled cAMP and 5 mcL Ulight anti-cAMP antibody was added to wells. The plate was covered with an adhesive cover to prevent evaporation and incubated for 60 minutes at room temperature in the dark. Plates were read on an Envision fluorescent plate reader (PerkinElmer).
(§4) Test values were first normalized to the forskolin induced cAMP system maximum and system minimum averaged values in Excel using the formula: (test value−system minavg)/(system maxavg−system minavg)*100. Normalized test values represent a baseline corrected percentage of the system maximum cAMP response induced by forskolin. Normalized data was analyzed from triplicate tests and used to estimate the EC50 for each peptide on each receptor. Data was fit in GraphPad Prism software (v7.04) using a 4-parameter logistic curve model: Y=Bottom+(Top−Bottom)/(1+10^((Log EC50−X))). The Hill slope was constrained to 1.0. EC50 values were converted to pEC50 values using the formula: pEC50=−Log (EC50).

[5] = biological target: T1, human calcitonin receptor (hCTR) (Homo sapiens, UniProt P30988); experiment: cAMP accumulation functional assay in HEK293-CNG cells expressing hCTR; format: cell-based
T1 sequence (P30988 25-474): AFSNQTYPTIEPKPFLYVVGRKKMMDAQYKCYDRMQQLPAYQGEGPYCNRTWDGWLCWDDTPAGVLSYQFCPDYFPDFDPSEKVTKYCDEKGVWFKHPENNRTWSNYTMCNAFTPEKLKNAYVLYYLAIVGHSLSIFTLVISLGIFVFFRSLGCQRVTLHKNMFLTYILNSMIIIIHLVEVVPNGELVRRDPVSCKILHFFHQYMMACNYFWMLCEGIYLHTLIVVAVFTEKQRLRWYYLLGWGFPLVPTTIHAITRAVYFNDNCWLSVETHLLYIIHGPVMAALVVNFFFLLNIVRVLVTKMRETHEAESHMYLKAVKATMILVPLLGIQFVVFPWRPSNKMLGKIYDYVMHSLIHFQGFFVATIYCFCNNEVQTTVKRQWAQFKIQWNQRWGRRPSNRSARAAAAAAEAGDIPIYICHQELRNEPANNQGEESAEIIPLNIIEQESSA
Procedure: as §1, §2, §3, §4

human amylin 3 receptor (hAMY3R), sequence (O60896 24-148, one chain of several): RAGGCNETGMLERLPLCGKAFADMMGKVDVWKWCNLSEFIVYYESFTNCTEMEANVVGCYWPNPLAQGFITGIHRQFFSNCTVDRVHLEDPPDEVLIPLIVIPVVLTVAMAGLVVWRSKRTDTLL

Row | Vd [1] | clearance [1] | half-life [1] | solubility ([3]; TFA salt, DI H2O, room temperature, read-out: Solubility) | EC50 ([4]; 4% HSA, read-out: pEC50 hAMY3R 4% HSA (converted)) | EC50 ([4]; pEC50 hAMY3R 0.1% HSA, 0.1% HSA) | EC50 ([5]; hCTR 0% HSA, 0% HSA, read-out: pEC50 hCTR 0% HSA (converted)) | EC50 ([5]; hCTR 0.1% HSA, 0.1% HSA) | EC50 ([5]; hCTR 4% HSA, 4% HSA, read-out: pEC50 hCTR 4% HSA (converted)) | solubility ([3]; Solubility) | Structure (SMILES) | Acute Food Intake % Inhibition vs vehicle ([2]; 0-24 hr after acute SC dosing) | Acute Food Intake % Inhibition vs vehicle ([2]; 25-48 hr after acute SC dosing)
1 | 0.159 L/kg | 0.119 mL/min/kg | 17.4 h |  |  |  |  |  |  |  | CC[C@H](C)[C@H](NC(=O)[C@@H]1CCCN1C(=O)CNC(=O)[C@H](Cc1ccccc1)NC(=O)[C@H](CC(N)=O)NC(=O)[C@H](CC(N)=O)NC(=O)[C@H](CO)NC(=O)[C@H](CO)NC(=O)[C@H](CCCCN)NC(=O)[C@H](Cc1c[nH]cn1)NC(=O)[C@H](CC(C)C)NC(=O)[C@H](CCCCNC(=O)COCCOCNC(=O)COCCOCNC(=O)CC[C@H](NC(=O)CCCCCCCCCCCCCCCCC(=O)O)C(=O)O)NC(=O)[C@H](CC(N)=O)NC(=O)[C@H](C)NC(=O)[C@H](CC(C)C)NC(=O)[C@H](CCCNC(=N)N)NC(=O)[C@H](CCC(N)=O)NC(=O)[C@@H](NC(=O)[C@H](C)NC(=O)[C@@H]1CSSC[C@H](NC(=O)[C@@H](N)CO)C(=O)N[C@@H](CC(N)=O)C(=O)N[C@@H]([C@@H](C)O)C(=O)N[C@@H](CO)C(=O)N[C@@H]([C@@H](C)O)C(=O)N1)[C@@H](C)O)C(=O)N[C@@H](CC(C)C)C(=O)N1CCC[C@H]1C(=O)N1CCC[C@H]1C(=O)N[C@H](C(=O)N[C@@H](CCCCN)C(=O)N[C@H](C(=O)NCC(=O)N[C@@H](CO)C(=O)N[C@@H](CCC(=O)O)C(=O)N[C@H](C(=O)N[C@@H](Cc1ccc(O)cc1)C(N)=O)[C@@H](C)O)C(C)C)[C@@H](C)O [Compound A98] (H-SCNTSTCATQRLANK(X2)LHKSSNNFGPILPPTKVGSETY-NH2; disulfide 2-7; N-terminus assumed) | 23% | 24%
2 | 0.198 L/kg | 0.357 mL/min/kg | 7.14 h | 70.6 mg/mL |  |  |  |  |  |  | CCCCCCCCCCCCCCCC(=O)N[C@@H](CCC(=O)N[C@@H](CCC(=O)N[C@@H](CCC(=O)NCCCC[C@@H](NC(=O)[C@H](CCC(=O)O)NC(=O)[C@H](CC(N)=O)NC(=O)[C@H](C)NC(=O)[C@H](CC(C)C)NC(=O)[C@H](CCCNC(=N)N)NC(=O)[C@H](CCC(N)=O)NC(=O)[C@@H](NC(=O)[C@H](C)NC(=O)[C@@H]1CSSC[C@H](NC(=O)[C@@H](N)CO)C(=O)N[C@@H](CC(N)=O)C(=O)N[C@@H]([C@@H](C)O)C(=O)N[C@@H](CO)C(=O)N[C@@H]([C@@H](C)O)C(=O)N1)[C@@H](C)O)C(=O)N[C@@H](Cc1c[nH]cn1)C(=O)N[C@@H](CCCCN)C(=O)N[C@@H](CO)C(=O)N[C@@H](CO)C(=O)N[C@@H](CC(N)=O)C(=O)N[C@@H](CC(N)=O)C(=O)N[C@@H](Cc1ccccc1)C(=O)NCC(=O)N1CCC[C@H]1C(=O)N[C@H](C(=O)N[C@@H](CC(C)C)C(=O)N1CCC[C@H]1C(=O)N1CCC[C@H]1C(=O)N[C@H](C(=O)N[C@@H](CCCCN)C(=O)N[C@H](C(=O)NCC(=O)N[C@@H](CO)C(=O)N[C@@H](CC(N)=O)C(=O)N[C@H](C(=O)N[C@@H](Cc1ccc(O)cc1)C(N)=O)[C@@H](C)O)C(C)C)[C@@H](C)O)[C@@H](C)CC)C(=O)O)C(=O)O)C(=O)O [Compound A67] (H-SCNTSTCATQRLANE[dK]([γGlu-γGlu-γGlu-Palmitoyl])HKSSNNFGPILPPTKVGSNTY-NH2; disulfide 2-7) |  | 
3 | 0.137 L/kg | 0.135 mL/min/kg | 15 h |  | 0.631 nM | 0.0158 nM | 0.0158 nM | 0.316 nM | 15.8 nM |  | CCCCCCCCCCCCCCCC(=O)N[C@@H](CCC(=O)N[C@@H](CCC(=O)N[C@@H](CCC(=O)N[C@@H](CCC(=O)NCCOCCOCC(=O)NCCOCCOCC(=O)N[C@@H](CCC(=O)NCCCC[C@H](NC(=O)[C@H](CCC(=O)O)NC(=O)[C@H](CC(N)=O)NC(=O)[C@H](C)NC(=O)[C@H](CC(C)C)NC(=O)[C@H](CCCNC(=N)N)NC(=O)[C@H](CCC(N)=O)NC(=O)[C@@H](NC(=O)[C@H](C)NC(=O)[C@@H]1CSSC[C@H](NC(=O)[C@@H](N)CO)C(=O)N[C@@H](CC(N)=O)C(=O)N[C@@H]([C@@H](C)O)C(=O)N[C@@H](CO)C(=O)N[C@@H]([C@@H](C)O)C(=O)N1)[C@@H](C)O)C(=O)N[C@@H](Cc1c[nH]cn1)C(=O)N[C@@H](CCCCN)C(=O)N[C@@H](CO)C(=O)N[C@@H](CO)C(=O)N[C@@H](CC(N)=O)C(=O)N[C@@H](CC(N)=O)C(=O)N[C@@H](Cc1ccccc1)C(=O)NCC(=O)N1CCC[C@H]1C(=O)N[C@H](C(=O)N[C@@H](CC(C)C)C(=O)N1CCC[C@H]1C(=O)N1CCC[C@H]1C(=O)N[C@H](C(=O)N[C@@H](CCCCN)C(=O)N[C@H](C(=O)NCC(=O)N[C@@H](CO)C(=O)N[C@@H](CCC(=O)O)C(=O)N[C@H](C(=O)N[C@@H](Cc1ccc(O)cc1)C(N)=O)[C@@H](C)O)C(C)C)[C@@H](C)O)[C@@H](C)CC)C(=O)O)C(=O)O)C(=O)O)C(=O)O)C(=O)O [Compound A5] (H-SCNTSTCATQRLANEK([γGlu-AEEA-AEEA-γGlu-γGlu-γGlu-γGlu-Palmitoyl])HKSSNNFGPILPPTKVGSETY-NH2; disulfide 2-7; N-terminus assumed) | 37% | 
4 | 0.194 L/kg | 0.259 mL/min/kg | 9.59 h |  |  |  |  |  |  | 78.3 mg/mL (≈ 16.5 mM) | CCCCCCCCCCCCCCCC(=O)N[C@@H](CCC(=O)N[C@@H](CCC(=O)N[C@@H](CCC(=O)N[C@@H](CCC(=O)NCCCC[C@@H](NC(=O)[C@H](CCC(=O)O)NC(=O)[C@H](CC(N)=O)NC(=O)[C@H](C)NC(=O)[C@H](CC(C)C)NC(=O)[C@H](CCCNC(=N)N)NC(=O)[C@H](CCC(N)=O)NC(=O)[C@@H](NC(=O)[C@H](C)NC(=O)[C@@H]1CSSC[C@H](NC(=O)[C@@H](N)CO)C(=O)N[C@@H](CC(N)=O)C(=O)N[C@@H]([C@@H](C)O)C(=O)N[C@@H](CO)C(=O)N[C@@H]([C@@H](C)O)C(=O)N1)[C@@H](C)O)C(=O)N[C@@H](Cc1c[nH]cn1)C(=O)N[C@@H](CCCCN)C(=O)N[C@@H](CO)C(=O)N[C@@H](CO)C(=O)N[C@@H](CC(N)=O)C(=O)N[C@@H](CC(N)=O)C(=O)N[C@@H](Cc1ccccc1)C(=O)NCC(=O)N1CCC[C@H]1C(=O)N[C@H](C(=O)N[C@@H](CC(C)C)C(=O)N1CCC[C@H]1C(=O)N1CCC[C@H]1C(=O)N[C@H](C(=O)N[C@@H](CCCCN)C(=O)N[C@H](C(=O)NCC(=O)N[C@@H](CO)C(=O)N[C@@H](CCC(=O)O)C(=O)N[C@H](C(=O)N[C@@H](Cc1ccc(O)cc1)C(N)=O)[C@@H](C)O)C(C)C)[C@@H](C)O)[C@@H](C)CC)C(=O)O)C(=O)O)C(=O)O)C(=O)O [Compound A66] (H-SCNTSTCATQRLANE[dK]([γGlu-γGlu-γGlu-γGlu-Palmitoyl])HKSSNNFGPILPPTKVGSETY-NH2; disulfide 2-7) |  | 
